Data reported in patent US11912719B2, “Substituted isoquinolines as rock kinase inhibitors” (Cervello Therapeutics LLC, priority 2018, dated 2024).
pIC50: −log10 of the molar value.

Legend:
Type in all cases: biochemical
[1] = biological target: T1, human ROCK1 catalytic domain (Homo sapiens, UniProt Q13464); assay: fluorescence coupling (TR-FRET) enzymatic assay, ROCK1; settings: 4 nM enzyme, 4 μM ATP, 50 nM Ulight-CREBTide, one hour room temperature; read-out: ROCK1 IC50
T1 construct: GST; purchased Carna BioSciences 01-109
T1 sequence (Q13464 1-477): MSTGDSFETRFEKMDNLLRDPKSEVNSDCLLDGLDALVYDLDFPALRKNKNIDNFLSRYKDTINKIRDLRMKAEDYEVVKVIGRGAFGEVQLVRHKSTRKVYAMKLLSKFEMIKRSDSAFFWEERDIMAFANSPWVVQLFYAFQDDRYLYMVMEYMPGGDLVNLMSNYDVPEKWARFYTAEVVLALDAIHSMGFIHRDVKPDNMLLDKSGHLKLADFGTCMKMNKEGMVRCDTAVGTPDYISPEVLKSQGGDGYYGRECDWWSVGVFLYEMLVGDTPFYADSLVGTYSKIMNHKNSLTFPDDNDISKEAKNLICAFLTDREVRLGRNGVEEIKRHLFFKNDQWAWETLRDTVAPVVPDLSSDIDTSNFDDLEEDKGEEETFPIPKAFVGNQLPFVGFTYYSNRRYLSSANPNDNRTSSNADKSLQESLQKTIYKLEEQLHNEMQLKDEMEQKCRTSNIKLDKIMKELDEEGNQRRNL
Description: (§1) Briefly, compounds of the present invention were solubilized in DMSO and a series of 12, three-fold serial dilutions were made for each compound in 2.5% DMSO. The initial starting concentration for the serial dilutions of each compound was 10 μM or 100 μM. Control samples lacking compound, ROCK enzyme or ATP also were prepared and processed in parallel with compound test samples.
The reaction mixtures were incubated at room temperature for one hour. After one hour, the reaction was stopped by the addition of a 10 solution of an Europium-labelled phospho-CREB (Ser133) antibody (Perkin Elmer, Catalog #TRF0200) in LANCE buffer supplemented with 20 mM EDTA. The stopped reaction mixtures were incubated at room temperature for 90 minutes. […] The ICso value for each compound was determined from each dose-response curve using GraphPad Prism 7 software with a sigmodial dose response.

[2] = biological target: T2, human ROCK2 enzyme kinase domain (Homo sapiens, UniProt O75116); assay: fluorescence coupling (TR-FRET) enzymatic assay, ROCK2; settings: 4 nM enzyme, 50 nM Ulight-CREBTide, one hour room temperature
T2 construct: GST; purchased Carna BioSciences 01-110
T2 sequence (O75116 1-553): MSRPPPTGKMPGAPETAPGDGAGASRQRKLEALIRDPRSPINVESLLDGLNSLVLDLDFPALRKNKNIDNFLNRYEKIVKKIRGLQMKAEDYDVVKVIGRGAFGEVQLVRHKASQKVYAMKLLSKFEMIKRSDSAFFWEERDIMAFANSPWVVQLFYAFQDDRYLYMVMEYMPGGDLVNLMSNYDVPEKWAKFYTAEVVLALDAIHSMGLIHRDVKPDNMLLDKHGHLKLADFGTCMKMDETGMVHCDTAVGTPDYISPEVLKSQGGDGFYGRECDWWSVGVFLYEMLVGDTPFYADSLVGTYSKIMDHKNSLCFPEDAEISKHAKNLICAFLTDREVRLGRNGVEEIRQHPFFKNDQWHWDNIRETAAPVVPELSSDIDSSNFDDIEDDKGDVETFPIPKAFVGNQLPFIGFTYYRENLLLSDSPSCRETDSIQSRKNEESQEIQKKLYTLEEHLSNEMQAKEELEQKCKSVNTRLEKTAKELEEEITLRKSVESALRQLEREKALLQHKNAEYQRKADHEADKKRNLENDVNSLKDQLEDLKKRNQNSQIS
Description: (§2) Dose-response curves for compounds of the present invention were determined using a fluorescence coupling enzymatic assay using purified C-terminal truncated human ROCK1 catalytic domain (amino acids 1-477 of accession number NP_005397.1) fused to GST (Carna BioSciences, Catalog #01-109) and purified C-terminal truncated human ROCK2 enzyme kinase domain (amino acids 1-553 of accession number NP_004841.2) fused to GST BioSciences, Catalog #01-110). In addition, full length cGMP-dependent protein kinase 1 (PKG or PRKG1; amino acids 1-686 of accession number NP_006249.1) fused to GST (Carna BioSciences, Catalog #01-142), full length PKACα (PRKACA; amino acids 1-351 of accession number NP_002721.1) fused to GST (Carna BioSciences, Catalog #01-127), and C-terminal truncated human AKT1 catalytic domain (amino acids 104-480 of accession number NP_005154.1) fused to GST Biosciences, Catalog #01-101) were used as a control to measure any non-desired off-target kinase activity.
as §1
(§3) A 4 μL aliquot of each serial dilution of test compound diluted in H2O with 2.5% DMSO was added to a well containing 4 μL of 10 nM purified N-truncated ROCK1 (4 nM final concentration), 10 nM purified N-truncated ROCK2 enzyme (4 nM final concentration), 1.25 nM AKT1 (0.5 nM final concentration), 25 pM PKACA (10 pM final concentration) or 20 nM PKG (8 nM final concentration), in reaction buffer containing 50 mM Hepes, pH 7.5, 1 mM EGTA, 10 mM MgCl2, 2 mM DTT, and 0.01% Tween 20 (final concentration). To initiate the enzymatic reaction, 2 μL of a solution was added to each well to provide a final concentration of 50 nM Ulight-CREBTide peptide substrate (Perkin Elmer, Catalog #TRF0107) and 4 μM ATP for ROCK1 and AKT1 assays, […] for ROCK2 assays and 30 μM ATP for PKG assays, or 1 μM ATP for PKACA assays. The reaction mixtures were incubated at room temperature for one hour. After one hour, the reaction was stopped by the addition of a 10 solution of an Europium-labelled phospho-CREB (Ser133) antibody (Perkin Elmer, Catalog #TRF0200) in LANCE buffer supplemented with 20 mM EDTA. The stopped reaction mixtures were incubated at room temperature for 90 minutes. The TR-FRET 665/620 ratios were determined using a Clariostar monochromator plate reader instrument (BMG LabTech) in accordance with the manufacturer's instructions. The ICso value for each compound was determined from each dose-response curve using GraphPad Prism 7 software with a sigmodial dose response. Key: A is IC50≤100 nM; B is 100 nM<IC50<1000 nM; C is 1,000<IC50≤10,000 nM; D is IC50>10,000 nM

[3] = biological target: T3, PKACα (PRKACA) (Homo sapiens, UniProt P17612); assay: fluorescence coupling (TR-FRET) enzymatic assay, PKACA off-target control; settings: 10 pM enzyme, 1 μM ATP, 50 nM Ulight-CREBTide, one hour room temperature
T3 construct: GST; purchased Carna BioSciences 01-127
Description: as §2, §1, §3

[4] = biological target: T4, human AKT1 catalytic domain (Homo sapiens, UniProt P31749); assay: fluorescence coupling (TR-FRET) enzymatic assay, AKT1 off-target control; settings: 0.5 nM enzyme, 4 μM ATP, 50 nM Ulight-CREBTide, one hour room temperature
T4 construct: GST; purchased Carna BioSciences 01-101
T4 sequence (P31749 104-480): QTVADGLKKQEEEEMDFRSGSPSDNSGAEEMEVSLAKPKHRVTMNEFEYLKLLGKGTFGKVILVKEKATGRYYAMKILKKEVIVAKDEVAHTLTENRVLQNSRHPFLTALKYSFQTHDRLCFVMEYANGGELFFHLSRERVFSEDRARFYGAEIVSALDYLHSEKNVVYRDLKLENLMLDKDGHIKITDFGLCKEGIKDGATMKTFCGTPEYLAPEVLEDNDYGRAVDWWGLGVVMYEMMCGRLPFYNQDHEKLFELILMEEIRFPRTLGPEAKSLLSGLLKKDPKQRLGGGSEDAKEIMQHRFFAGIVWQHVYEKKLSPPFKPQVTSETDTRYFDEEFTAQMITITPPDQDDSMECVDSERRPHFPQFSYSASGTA
Description: as §2, §1, §3

[5] = biological target: T5, cGMP-dependent protein kinase 1 (PKG or PRKG1) (Homo sapiens, UniProt Q13976); assay: fluorescence coupling (TR-FRET) enzymatic assay, PKG off-target control; settings: 8 nM enzyme, 30 μM ATP, 50 nM Ulight-CREBTide, one hour room temperature
T5 construct: GST; purchased Carna BioSciences 01-142
T5 sequence (Q13976 1-686 isoform Q13976-2): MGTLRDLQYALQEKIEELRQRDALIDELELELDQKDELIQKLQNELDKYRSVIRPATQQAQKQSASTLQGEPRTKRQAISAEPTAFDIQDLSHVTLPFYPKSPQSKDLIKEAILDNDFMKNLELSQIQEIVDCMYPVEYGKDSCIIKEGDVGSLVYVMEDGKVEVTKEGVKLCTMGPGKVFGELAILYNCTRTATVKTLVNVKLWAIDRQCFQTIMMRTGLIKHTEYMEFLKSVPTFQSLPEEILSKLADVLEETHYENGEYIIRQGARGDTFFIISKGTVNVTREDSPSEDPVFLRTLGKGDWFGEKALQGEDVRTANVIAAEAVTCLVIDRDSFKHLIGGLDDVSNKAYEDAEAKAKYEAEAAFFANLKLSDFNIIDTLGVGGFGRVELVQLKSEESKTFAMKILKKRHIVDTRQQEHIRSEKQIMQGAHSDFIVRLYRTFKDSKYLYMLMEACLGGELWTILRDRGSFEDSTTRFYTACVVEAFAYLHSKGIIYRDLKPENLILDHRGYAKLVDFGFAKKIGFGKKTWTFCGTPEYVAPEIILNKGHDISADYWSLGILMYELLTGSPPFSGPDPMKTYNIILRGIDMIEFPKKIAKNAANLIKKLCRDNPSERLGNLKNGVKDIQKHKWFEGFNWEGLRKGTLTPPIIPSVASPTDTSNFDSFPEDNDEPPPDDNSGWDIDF
Description: as §2, §1, §3

pIC50 [1]	pIC50 [2]	pIC50 [3]	pIC50 [4]	pIC50 [5]	SMILES
6.00 to 7.00	6.00 to 7.00	< 5.00	< 5.00	< 5.00	CN(C)c1cc(C#N)cc2c1CCN2S(=O)(=O)c1cccc2c(=O)[nH]cc(Cl)c12 [Example 37, 1-((4-chloro-1-oxo-1,2-dihydroisoquinolin-5-yl)sulfonyl)-4-(dimethylamino)indoline-6-carbonitrile]
6.00 to 7.00	6.00 to 7.00	< 5.00	< 5.00	< 5.00	N#Cc1cnc2c(c1)N(S(=O)(=O)c1cccc3c(=O)[nH]ccc13)CC2 [Example 38, 1-((1-oxo-1,2-dihydroisoquinolin-5-yl)sulfonyl)-2,3-dihydro-1H-pyrrolo[3,2-b]pyridine-6-carbonitrile]
6.00 to 7.00	6.00 to 7.00	< 5.00	< 5.00	< 5.00	Cc1c[nH]c(=O)c2cccc(S(=O)(=O)N3CCc4ncc(C#N)cc43)c12 [Example 39, 1-((4-methyl-1-oxo-1,2-dihydroisoquinolin-5-yl)sulfonyl)-2,3-dihydro-1H-pyrrolo[3,2-b]pyridine-6-carbonitrile]
> 7.00	> 7.00	< 5.00	< 5.00	< 5.00	N#Cc1cnc2c(c1)N(S(=O)(=O)c1cccc3c(=O)[nH]cc(Cl)c13)CC2 [Example 40, 1-((4-chloro-1-oxo-1,2-dihydroisoquinolin-5-yl)sulfonyl)-2,3-dihydro-1H-pyrrolo[3,2-b]pyridine-6-carbonitrile]
6.00 to 7.00	6.00 to 7.00	< 5.00	< 5.00	< 5.00	CNc1cc(C#N)cc2c1CCN2S(=O)(=O)c1cccc2c(=O)[nH]cc(C)c12 [Example 41, 1-((4-methyl-1-oxo-1,2-dihydroisoquinolin-5-yl)sulfonyl)-4-(methylamino)indoline-6-carbonitrile]
6.00 to 7.00	> 7.00	< 5.00	< 5.00	< 5.00	CNc1cc(C#N)cc2c1CCN2S(=O)(=O)c1cccc2c(=O)[nH]cc(Cl)c12 [Example 42, 1-((4-chloro-1-oxo-1,2-dihydroisoquinolin-5-yl)sulfonyl)-4-(methylamino)indoline-6-carbonitrile]
5.00 to 6.00	6.00 to 7.00	< 5.00	< 5.00	< 5.00	CCNc1cc(C#N)cc2c1CCN2S(=O)(=O)c1cccc2c(=O)[nH]cc(C)c12 [Example 43, 4-(ethylamino)-1-((4-methyl-1-oxo-1,2-dihydroisoquinolin-5-yl)sulfonyl)indoline-6-carbonitrile]
5.00 to 6.00	5.00 to 6.00	< 5.00	< 5.00	< 5.00	CCNc1cc(C#N)cc2c1CCN2S(=O)(=O)c1cccc2c(=O)[nH]cc(Cl)c12 [Example 44, 1-((4-chloro-1-oxo-1,2-dihydroisoquinolin-5-yl)sulfonyl)-4-(ethylamino)indoline-6-carbonitrile]
> 7.00	> 7.00	6.00 to 7.00	> 7.00	5.00 to 6.00	Cc1c[nH]c(=O)c2cccc(S(=O)(=O)N3CCc4c(NCCN5C[C@H]6C[C@@H]5CO6)cc(C#N)cc43)c12 [Example 45]
